ChEMBL document CHEMBL1201862, “PubChem BioAssay data set” (2004)
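In this assay, cells in 96-well plates receive the compound at five concentrations for 48 hours. Endpoints are linearly interpolated between the surrounding concentrations. GI50 = concentration required for 50% inhibition of growth.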 Activity calls are given as the source filed them. Cut-off read from the data, not from the text of the source: active = GI50 up to about 1.1 µM and inactive = higher.

Legend:
Test in all cases: DTP human tumour cell line panel, 48 h
BT-549 = tested on: BT-549
CAKI-1 = tested on: CAKI-1
DU-145 = tested on: DU-145
HCT-116 = tested on: HCT-116
HL-60 = tested on: HL-60
Hs-578T = tested on: Hs-578T
KM12 = tested on: KM12
MOLT-4 = tested on: MOLT-4
Malme-3M = tested on: Malme-3M
NCI/ADR-RES = tested on: NCI/ADR-RES
OVCAR-3 = tested on: OVCAR-3
OVCAR-5 = tested on: OVCAR-5
RPMI-8226 = tested on: RPMI-8226
SF-268 = tested on: SF-268
SF-539 = tested on: SF-539
SK-MEL-5 = tested on: SK-MEL-5
SNB-19 = tested on: SNB-19
SW-620 = tested on: SW-620
T47D = tested on: T47D
SR = tested on: SR

Cc1[nH]c2c(c1Cc1ccccc1)C1=NC=C(O)NN1C=N2
GI50 (BT-549): 49 µM (inactive) | GI50 (CAKI-1): > 100 µM (inactive) | GI50 (DU-145): > 100 µM (inactive) | GI50 (HCT-116): 85.7 µM (inactive) | GI50 (HL-60): > 100 µM (inactive) | GI50 (Hs-578T): 67.5 µM (inactive) | GI50 (KM12): > 100 µM (inactive) | GI50 (MOLT-4): 29 µM (inactive) | GI50 (Malme-3M): > 100 µM (inactive) | GI50 (NCI/ADR-RES): > 100 µM (inactive) | GI50 (OVCAR-3): 60.4 µM (inactive) | GI50 (OVCAR-5): > 100 µM (inactive) | GI50 (RPMI-8226): 51.5 µM (inactive) | GI50 (SF-268): 94.2 µM (inactive) | GI50 (SF-539): 86.9 µM (inactive) | GI50 (SK-MEL-5): 70 µM (inactive) | GI50 (SNB-19): > 100 µM (inactive) | GI50 (SW-620): 21.5 µM (inactive) | GI50 (T47D): 14.4 µM (inactive)

CC1(C)CC(=O)C2(CC(CSc3ccccc3)C(CS(=O)(=O)c3ccccc3)C2)C(=O)C1 (centres undefined)
GI50 (BT-549): > 100 µM (inactive) | GI50 (CAKI-1): > 100 µM (inactive) | GI50 (DU-145): > 100 µM (inactive) | GI50 (HCT-116): > 100 µM (inactive) | GI50 (Hs-578T): > 100 µM (inactive) | GI50 (KM12): > 100 µM (inactive) | GI50 (MOLT-4): > 100 µM (inactive) | GI50 (NCI/ADR-RES): > 100 µM (inactive) | GI50 (OVCAR-3): > 100 µM (inactive) | GI50 (OVCAR-5): > 100 µM (inactive) | GI50 (RPMI-8226): 66.4 µM (inactive) | GI50 (SF-268): > 100 µM (inactive) | GI50 (SF-539): > 100 µM (inactive) | GI50 (SK-MEL-5): > 100 µM (inactive) | GI50 (SNB-19): > 100 µM (inactive) | GI50 (SW-620): > 100 µM (inactive) | GI50 (T47D): 45.5 µM (inactive)

O=C1NC(=O)/C(=C/c2ccc(S(=O)(=O)N/N=C\C(O)C(O)C(O)C(O)CO)cc2)N1 (centres undefined)
GI50 (BT-549): > 100 µM (inactive) | GI50 (CAKI-1): > 100 µM (inactive) | GI50 (DU-145): > 100 µM (inactive) | GI50 (HCT-116): > 100 µM (inactive) | GI50 (HL-60): > 100 µM (inactive) | GI50 (Hs-578T): > 100 µM (inactive) | GI50 (KM12): > 100 µM (inactive) | GI50 (MOLT-4): > 100 µM (inactive) | GI50 (Malme-3M): > 100 µM (inactive) | GI50 (NCI/ADR-RES): > 100 µM (inactive) | GI50 (OVCAR-3): > 100 µM (inactive) | GI50 (OVCAR-5): > 100 µM (inactive) | GI50 (RPMI-8226): > 100 µM (inactive) | GI50 (SF-268): > 100 µM (inactive) | GI50 (SK-MEL-5): > 100 µM (inactive) | GI50 (SNB-19): > 100 µM (inactive) | GI50 (SR): > 100 µM (inactive) | GI50 (SW-620): > 100 µM (inactive) | GI50 (T47D): > 100 µM (inactive)

CC(C)C1=CC(=O)[C@@](C)(C2[C@H](O)C[C@@]3(C)[C@@H]4CC=C5[C@@H](CC[C@@H](OC6OCC(O)C(O)C6OC6OC(C)C(O)C(O)C6O)C5(C)C)[C@]4(C)C(=O)C[C@]23C)O1 (some centres undefined)
GI50 (BT-549): > 100 µM (inactive) | GI50 (CAKI-1): > 100 µM (inactive) | GI50 (DU-145): > 100 µM (inactive) | GI50 (HCT-116): > 100 µM (inactive) | GI50 (Hs-578T): > 100 µM (inactive) | GI50 (KM12): > 100 µM (inactive) | GI50 (MOLT-4): > 100 µM (inactive) | GI50 (Malme-3M): > 100 µM (inactive) | GI50 (NCI/ADR-RES): > 100 µM (inactive) | GI50 (OVCAR-3): > 100 µM (inactive) | GI50 (OVCAR-5): > 100 µM (inactive) | GI50 (RPMI-8226): > 100 µM (inactive) | GI50 (SF-268): > 100 µM (inactive) | GI50 (SK-MEL-5): > 100 µM (inactive) | GI50 (SNB-19): > 100 µM (inactive) | GI50 (SW-620): > 100 µM (inactive) | GI50 (T47D): > 100 µM (inactive)

CN(CCCNC(=O)c1n[nH]c2c1ccc1ccccc12)CCCNC(=O)c1n[nH]c2c1ccc1ccccc12
GI50 (BT-549): 15.6 µM (inactive) | GI50 (CAKI-1): 16.8 µM (inactive) | GI50 (DU-145): 15.7 µM (inactive) | GI50 (HCT-116): 12.7 µM (inactive) | GI50 (HL-60): 1.67 µM (inactive) | GI50 (Hs-578T): 16.8 µM (inactive) | GI50 (KM12): 16.9 µM (inactive) | GI50 (MOLT-4): 10.4 µM (inactive) | GI50 (Malme-3M): 10.3 µM (inactive) | GI50 (NCI/ADR-RES): > 100 µM (inactive) | GI50 (OVCAR-3): 13.8 µM (inactive) | GI50 (OVCAR-5): 20.4 µM (inactive) | GI50 (SF-268): 14.7 µM (inactive) | GI50 (SF-539): 11 µM (inactive) | GI50 (SK-MEL-5): 4.68 µM (inactive) | GI50 (SNB-19): 18.8 µM (inactive) | GI50 (SW-620): 16.3 µM (inactive) | GI50 (T47D): 16 µM (inactive)

O=C(O)CCCc1ccc2ccc3ccccc3c2c1
GI50 (BT-549): 69 µM (inactive) | GI50 (CAKI-1): > 100 µM (inactive) | GI50 (DU-145): > 100 µM (inactive) | GI50 (HCT-116): 89.1 µM (inactive) | GI50 (Hs-578T): 38.8 µM (inactive) | GI50 (KM12): 35.6 µM (inactive) | GI50 (MOLT-4): 65.5 µM (inactive) | GI50 (Malme-3M): 39.4 µM (inactive) | GI50 (NCI/ADR-RES): 84.3 µM (inactive) | GI50 (OVCAR-3): 53.6 µM (inactive) | GI50 (OVCAR-5): 73.5 µM (inactive) | GI50 (RPMI-8226): 38.8 µM (inactive) | GI50 (SF-268): 66.2 µM (inactive) | GI50 (SK-MEL-5): 55.2 µM (inactive) | GI50 (SNB-19): > 100 µM (inactive) | GI50 (SR): 51.9 µM (inactive) | GI50 (T47D): 52.8 µM (inactive)

O=C1c2cccnc2-c2nccc3ccnc1c23
GI50 (BT-549): 1.43 µM (inactive) | GI50 (CAKI-1): 0.116 µM (active) | GI50 (DU-145): 0.966 µM (active) | GI50 (HCT-116): 0.0865 µM (active) | GI50 (HL-60): 0.0248 µM (active) | GI50 (Hs-578T): 2.02 µM (inactive) | GI50 (KM12): 1.54 µM (inactive) | GI50 (MOLT-4): 0.413 µM (active) | GI50 (Malme-3M): 0.853 µM (active) | GI50 (NCI/ADR-RES): 0.294 µM (active) | GI50 (OVCAR-3): 0.343 µM (active) | GI50 (OVCAR-5): 2.07 µM (inactive) | GI50 (RPMI-8226): 0.195 µM (active) | GI50 (SF-268): 1.11 µM (active) | GI50 (SF-539): 1.5 µM (inactive) | GI50 (SK-MEL-5): 0.61 µM (active) | GI50 (SNB-19): 1.03 µM (active) | GI50 (SW-620): 0.474 µM (active) | GI50 (T47D): 0.622 µM (active)

COc1ccccc1-c1nc(O)c2ccccc2n1
GI50 (BT-549): > 100 µM (inactive) | GI50 (CAKI-1): > 100 µM (inactive) | GI50 (DU-145): > 100 µM (inactive) | GI50 (HCT-116): > 100 µM (inactive) | GI50 (Hs-578T): > 100 µM (inactive) | GI50 (KM12): > 100 µM (inactive) | GI50 (MOLT-4): > 100 µM (inactive) | GI50 (Malme-3M): > 100 µM (inactive) | GI50 (NCI/ADR-RES): > 100 µM (inactive) | GI50 (OVCAR-3): > 100 µM (inactive) | GI50 (OVCAR-5): > 100 µM (inactive) | GI50 (RPMI-8226): > 100 µM (inactive) | GI50 (SF-268): > 100 µM (inactive) | GI50 (SK-MEL-5): > 100 µM (inactive) | GI50 (SNB-19): > 100 µM (inactive) | GI50 (SR): > 100 µM (inactive) | GI50 (SW-620): > 100 µM (inactive) | GI50 (T47D): 49.9 µM (inactive)
